Data published in patent publication US9663508B2, “Biaryl acyl-sulfonamide compounds as sodium channel inhibitors” (AMGEN INC., priority 2013, dated 2017).

biological target: human Nav1.7 (Homo sapiens (Human), UniProt Q15858); assay: Nav 1.7 in vitro PatchXpress (PX) assay; format: cell-based; conditions: not given
Sequence (Q15858 whole entry): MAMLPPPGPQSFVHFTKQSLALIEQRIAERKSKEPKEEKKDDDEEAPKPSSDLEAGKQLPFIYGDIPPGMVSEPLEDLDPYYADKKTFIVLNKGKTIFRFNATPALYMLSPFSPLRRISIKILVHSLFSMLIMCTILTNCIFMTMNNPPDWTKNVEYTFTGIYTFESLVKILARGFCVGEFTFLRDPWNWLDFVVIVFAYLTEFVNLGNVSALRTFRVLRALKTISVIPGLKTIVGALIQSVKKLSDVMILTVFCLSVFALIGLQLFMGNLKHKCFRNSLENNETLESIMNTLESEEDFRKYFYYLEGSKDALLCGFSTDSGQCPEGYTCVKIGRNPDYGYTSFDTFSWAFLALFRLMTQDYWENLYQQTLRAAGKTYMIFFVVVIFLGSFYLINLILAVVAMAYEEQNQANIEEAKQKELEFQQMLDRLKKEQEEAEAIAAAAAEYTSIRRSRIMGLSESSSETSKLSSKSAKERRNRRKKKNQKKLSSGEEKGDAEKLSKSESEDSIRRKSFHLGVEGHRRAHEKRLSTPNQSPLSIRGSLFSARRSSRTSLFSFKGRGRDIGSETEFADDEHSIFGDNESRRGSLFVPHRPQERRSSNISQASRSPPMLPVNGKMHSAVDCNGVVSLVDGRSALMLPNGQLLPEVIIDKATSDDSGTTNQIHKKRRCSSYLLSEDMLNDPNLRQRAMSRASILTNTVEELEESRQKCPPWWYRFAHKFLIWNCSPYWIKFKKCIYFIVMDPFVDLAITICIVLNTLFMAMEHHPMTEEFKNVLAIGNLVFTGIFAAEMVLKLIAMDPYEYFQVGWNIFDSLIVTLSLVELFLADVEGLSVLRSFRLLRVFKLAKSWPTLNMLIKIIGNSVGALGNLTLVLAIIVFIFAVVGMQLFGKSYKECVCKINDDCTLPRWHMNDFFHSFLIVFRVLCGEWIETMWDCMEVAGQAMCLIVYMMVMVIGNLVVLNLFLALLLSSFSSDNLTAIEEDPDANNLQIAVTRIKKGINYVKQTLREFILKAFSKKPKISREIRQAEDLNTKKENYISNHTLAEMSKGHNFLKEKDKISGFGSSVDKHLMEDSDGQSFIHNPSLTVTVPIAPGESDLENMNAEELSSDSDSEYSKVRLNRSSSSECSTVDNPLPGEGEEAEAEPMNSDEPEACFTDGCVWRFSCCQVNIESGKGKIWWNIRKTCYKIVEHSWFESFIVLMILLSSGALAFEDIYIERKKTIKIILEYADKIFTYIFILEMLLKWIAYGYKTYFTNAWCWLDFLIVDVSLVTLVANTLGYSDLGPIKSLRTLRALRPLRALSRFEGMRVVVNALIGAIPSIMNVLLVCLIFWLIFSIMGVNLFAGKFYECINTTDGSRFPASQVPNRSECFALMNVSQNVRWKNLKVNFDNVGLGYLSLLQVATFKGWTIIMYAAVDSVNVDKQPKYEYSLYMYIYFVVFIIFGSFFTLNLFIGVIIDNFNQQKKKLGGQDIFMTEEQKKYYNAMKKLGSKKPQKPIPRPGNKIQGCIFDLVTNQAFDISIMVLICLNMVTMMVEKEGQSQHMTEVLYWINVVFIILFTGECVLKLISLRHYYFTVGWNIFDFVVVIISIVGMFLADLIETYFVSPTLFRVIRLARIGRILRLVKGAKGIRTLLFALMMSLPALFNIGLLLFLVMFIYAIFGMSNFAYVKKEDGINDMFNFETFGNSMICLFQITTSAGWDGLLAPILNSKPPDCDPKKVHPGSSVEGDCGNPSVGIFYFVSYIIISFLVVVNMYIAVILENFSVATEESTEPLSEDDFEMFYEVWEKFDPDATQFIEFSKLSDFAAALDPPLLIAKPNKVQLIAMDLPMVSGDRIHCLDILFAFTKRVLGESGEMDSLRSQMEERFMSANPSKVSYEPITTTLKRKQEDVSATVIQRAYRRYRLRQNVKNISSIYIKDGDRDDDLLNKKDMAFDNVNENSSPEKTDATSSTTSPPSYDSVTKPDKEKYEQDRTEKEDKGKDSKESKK

Row | SMILES | IC50
1 | CS(=O)(=O)NC(=O)c1cc(Cl)c(-c2cnc(OCC3CCCC3)c(Cl)c2)cc1F [Example 600, 5-chloro-4-(5-chloro-6-(cyclopentylmethoxy)-3-pyridinyl)-2-fluoro-N-(methylsulfonyl)benzamide] | 91.9 nM
2 | COc1cc(C(=O)NS(C)(=O)=O)c(F)cc1-c1cnc(OC2CCC2)c(Cl)c1 [Example 702, 4-(5-chloro-6-(cyclobutyloxy)-3-pyridinyl)-2-fluoro-5-methoxy-N-(methylsulfonyl)benzamide] | 68.4 nM
3 | CC[C@@H](Oc1ncc(-c2cc(F)c(C(=O)NS(C)(=O)=O)cc2C)cc1Cl)c1ccc(F)cc1 [Example 639, 4-(5-chloro-6-(((1R)-1-(4-fluorophenyl)propyl)oxy)-3-pyridinyl)-2-fluoro-5-methyl-N-(methylsulfonyl)benzamide, 4-(5-chloro-6-(((1S)-1-(4-fluorophenyl)propyl)oxy)-3-pyridinyl)-2-fluoro-5-methyl-N-(methylsulfonyl)benzamide] | 70.4 nM

Now from value to molecule:

Row | IC50 | SMILES
4 | 57 nM | COc1cc(C(=O)NS(C)(=O)=O)ccc1-c1cnc(Oc2ccc(Cl)c(C(F)(F)F)c2)c(Cl)c1 [Example 370, 4-(5-chloro-6-(4-chloro-3-(trifluoromethyl)phenoxy)-3-pyridinyl)-3-methoxy-N-(methylsulfonyl)benzamide]
5 | 59 nM | Cc1cc(Cl)cc(Cl)c1Oc1ncc(-c2ccc(C(=O)NS(C)(=O)=O)cc2OC2COC2)cc1Cl [Example 584, 4-(5-chloro-6-(2,4-dichloro-6-methylphenoxy)-3-pyridinyl)-N-(methylsulfonyl)-3-(3-oxetanyloxy)benzamide]

same assay, conditions: in-vitro Nav 1.7 PX data

Row | SMILES | IC50
6 | COc1cc(C(=O)NS(C)(=O)=O)c(F)cc1-c1cnc(Oc2cc3ccccc3cc2Cl)c(Cl)c1 [Example 715, 4-(5-chloro-6-((3-chloro-2-naphthalenyl)oxy)-3-pyridinyl)-2-fluoro-5-methoxy-N-(methylsulfonyl)benzamide] | 98.8 nM
7 | COc1cc(C(=O)NS(C)(=O)=O)c(F)cc1-c1cnc(NCC2CC(C)(C)C2)c(Cl)c1 [Example 723, 4-(5-chloro-6-(((3,3-dimethylcyclobutyl)methyl)amino)-3-pyridinyl)-2-fluoro-5-methoxy-N-(methylsulfonyl)benzamide] | 74.8 nM
8 | Cc1cc(C(=O)NS(C)(=O)=O)c(F)cc1-c1cnc(-c2ccc(Cl)c(Cl)c2)c(Cl)c1 [Example 835, 4-(5-chloro-6-(3,4-dichlorophenyl)-3-pyridinyl)-2-fluoro-5-methyl-N-(methylsulfonyl)benzamide] | 167 nM
9 | CS(=O)(=O)NC(=O)c1cc(C2CC2)c(-c2cnc(OC3CCC3)c(Cl)c2)cc1F [Example 802, 4-(5-chloro-6-cyclobutoxypyridin-3-yl)-5-cyclopropyl-2-fluoro-N-(methylsulfonyl)benzamide] | 136 nM

The next lines start with the values.

Row | IC50 | SMILES
10 | 36.9 nM | COc1cc(C(=O)NS(C)(=O)=O)c(F)cc1-c1cnc(Oc2ccc(Cl)cc2F)c(Cl)c1 [Example 753, 4-(5-chloro-6-(4-chloro-2-fluorophenoxy)-3-pyridinyl)-2-fluoro-5-methoxy-N-(methylsulfonyl)benzamide]
11 | 39.4 nM | CCS(=O)(=O)NC(=O)c1ccc(-c2cnc(Oc3c(F)ccc(F)c3F)c(Cl)c2)c(OC)c1 [Example 791, 4-(5-chloro-6-(2,3,6-trifluorophenoxy)-3-pyridinyl)-N-(ethylsulfonyl)-3-methoxybenzamide]
12 | 73.3 nM | CS(=O)(=O)NC(=O)c1cc(OC(F)F)c(-c2cnc(Oc3c(F)ccc(F)c3F)c(Cl)c2)cc1F [Example 785, 4-(5-chloro-6-(2,3,6-trifluorophenoxy)-3-pyridinyl)-5-(difluoromethoxy)-2-fluoro-N-(methylsulfonyl)benzamide]
13 | 42.1 nM | COc1cc(C(=O)NS(C)(=O)=O)c(F)cc1-c1cnc(Oc2cc(C)ccc2Cl)c(Cl)c1 [Example 752, 4-(5-chloro-6-(2-chloro-5-methylphenoxy)-3-pyridinyl)-2-fluoro-5-methoxy-N-(methylsulfonyl)benzamide]
